± gives the standard deviation of the reports.
SMILES	glass transition temperature
*Oc1cccc2ccc(Oc3ccc(NC(=O)c4ccc(Oc5ccc(C(C)(C)c6cccc(C(C)(C)c7ccc(Oc8ccc(C(=O)Nc9ccc(*)cc9)cc8)cc7)c6)cc5)cc4)cc3)cc12 (repeat unit)	139.00 °C
*CC(*)N (repeat unit)	57.00 °C
*Oc1ccc(C(=O)OCCOC(=O)c2ccc(*)cc2)cc1 (repeat unit)	74.00 °C
*C(=O)Nc1ccc(S(=O)(=O)c2ccc(NC(=O)c3ccc4c(c3)C(=O)N(c3cccc(N5C(=O)c6ccc(*)cc6C5=O)c3)C4=O)cc2)cc1 (repeat unit)	342.00 °C
*c1ccc(Cc2ccc(N3C(=O)CC(Nc4ccc(N(c5ccc(Nc6ccc([N+](=O)[O-])cc6)cc5)c5ccc(NC6CC(=O)N(*)C6=O)cc5)cc4)C3=O)cc2)cc1 (repeat unit)	324.00 °C
*CC(COc1ccc(C(C)(C)c2ccc(O*)cc2)cc1)OC(=O)CCl (repeat unit)	65.00 °C
*CC(O)CN(*)c1ccc(/N=N/c2ccc([N+](=O)[O-])cc2C)cc1 (repeat unit)	156.00 °C
*c1ccc2c(c1)C(=O)N(c1ccc(Oc3c(C)cc(C(c4cc(C)c(Oc5ccc(N6C(=O)c7ccc(C(*)(C(F)(F)F)C(F)(F)F)cc7C6=O)cc5)c(C)c4)c4cccc5ccccc45)cc3C)cc1)C2=O (repeat unit)	308.00 °C
*Oc1ccc(C2(c3ccc(Oc4ccc(C(=O)c5ccc(*)cc5)cc4)cc3)c3ccccc3-c3ccccc32)cc1 (repeat unit)	252.00 °C
*COC(=O)c1ccc(/C(C#N)=C(\c2ccc(OC)cc2)N2CCCC(*)C2)cc1 (repeat unit)	176.00 °C
*Oc1ccc(S(=O)(=O)c2ccc(Oc3c(C)cc(-c4cc(C)c(*)c(C)c4Br)c(Br)c3C)cc2)cc1 (repeat unit)	298.20 °C
*CC(*)C(=O)OC1CC(C)CC(C)(C)C1 (repeat unit)	15.00 °C
*c1cccc(-n2c(=O)c3cc4c(=O)n(*)c(=O)c4cc3c2=O)n1 (repeat unit)	183.50 °C
*C(=O)OCCCCCCCCCCCOC(=O)c1ccc(N2C(=O)c3ccc(*)cc3C2=O)cc1 (repeat unit)	49.00 °C
*CNC(=O)OCc1ccc(COCc2ccc(COC(=O)NCc3ccc(C(C)(C)c4ccc(*)o4)o3)o2)o1 (repeat unit)	39.00 °C
*CC(*)c1ccc(Cl)cc1 (repeat unit) [Poly(4-chlorostyrene)]	119.92 ± 5.3 °C
*C1CCC(N2C(=O)c3ccc(S(=O)(=O)c4ccc5c(c4)C(=O)N(*)C5=O)cc3C2=O)CC1 (repeat unit)	363.00 °C
*c1cccc(Oc2ccc(P(=O)(c3ccccc3)c3ccccc3)c(Oc3cccc(N4C(=O)c5ccc(Oc6ccc(-c7ccc(Oc8ccc9c(c8)C(=O)N(*)C9=O)cc7)cc6)cc5C4=O)c3)c2)c1 (repeat unit)	227.00 °C
*CC(COc1ccc(O*)cc1)OC(C)=O (repeat unit)	49.00 °C
*CCCCCCCCCCOC(=O)CCCCCCCCCCCCCCCCC(=O)O* (repeat unit)	-17.00 °C
*CC(*)C(=O)NCCC[N+](C)(C)CCCS(=O)(=O)O (repeat unit)	141.50 °C
*C(=O)Nc1ccc(Oc2ccc(Oc3ccc(N4C(=O)c5ccc(*)cc5C4=O)cc3)cc2)cc1 (repeat unit)	250.00 °C

SMILES	glass transition temperature
*c1cc(C(=O)OCC)cc(N2C(=O)CC(C3Cc4ccccc4C4C(=O)N(*)C(=O)C43)C2=O)c1 (repeat unit)	254.00 °C
*O[Si](*)(CCCOCCOCCOCCOCCOCCOC)CCCOCCOCCOCCOCCOCCOC (repeat unit)	-69.70 °C
*c1ccc2c(c1)C(=O)N(c1c(C)cc(-c3cc(C)c(-c4cc(C)c(N5C(=O)c6ccc(C(*)(C(F)(F)F)C(F)(F)F)cc6C5=O)c(C)c4)cc3C)cc1C)C2=O (repeat unit)	361.00 °C
*CC(*)(C)C(=O)OCC=C (repeat unit)	94.00 °C
*CCN(*)C(=O)C12CC3CC(CC(C3)C1)C2 (repeat unit)	123.00 °C
*Oc1c(-c2ccccc2)cc(*)cc1-c1ccccc1-c1ccccc1 (repeat unit)	211.00 °C
*CCCCCCC(=O)NCc1ccc(CNC(=O)CCCCCCS*)cc1 (repeat unit)	65.00 °C
*Oc1ccc(N(c2ccc(OC)cc2)c2ccc3ccc(N(c4ccc(*)cc4)c4ccc(OC)cc4)cc3c2)cc1 (repeat unit)	197.00 °C
*/C=C/C1CC(*)C2C3CCC(C3)C12 (repeat unit)	207.40 °C
*C(=O)c1ccc(Oc2ccc(Oc3ccc(C(=O)c4ccc5c(c4)C(=O)N(c4ccc(Cc6ccc(N7C(=O)c8ccc(*)cc8C7=O)cc6)cc4)C5=O)cc3)cc2)cc1 (repeat unit)	225.00 °C
*CCOCC(CCl)O* (repeat unit)	-40.00 °C
*CC(*)(C)C(=O)OCC(=O)Nc1cc(C)on1 (repeat unit)	128.00 °C
*CC(*)(CC(=O)OC(C)C)C(=O)OC12CC3CC(C)(CC(C)(C3)C1)C2 (repeat unit)	158.00 °C
*c1ccc(OC(=O)c2cccc(C(=O)Oc3ccc(C4(*)OC(=O)c5ccccc54)cc3)c2)cc1 (repeat unit)	282.50 °C
*CCCC1(CCCNC(=O)CCCCCCCCC(=O)N*)c2ccccc2-c2ccccc21 (repeat unit)	85.00 °C
*Oc1ccc(C(C)(C)c2ccc(Oc3ccc(C(=O)Nc4cccc(NC(=O)c5ccc(*)cc5)c4)cc3)cc2)cc1 (repeat unit)	214.00 °C
*c1ccc2c(c1)C(=O)N(c1ccc(Oc3ccc(S(=O)(=O)c4ccc(Oc5ccc(N6C(=O)c7ccc(C(*)(C(F)(F)F)C(F)(F)F)cc7C6=O)cc5)cc4)cc3)cc1)C2=O (repeat unit)	276.50 °C
*Oc1ccc(Sc2ccc(OC(*)=O)cc2)cc1 (repeat unit) [Poly(4,4'-thiodiphenylene carbonate)]	113.4 ± 2.1 °C
*c1ccc(-c2ccc(-c3ccc(-c4cc(-c5ccccc5)c5cc(-c6ccc7nc(*)cc(-c8ccccc8)c7c6)ccc5n4)cc3)cc2)cc1 (repeat unit)	360.00 °C
*C(=O)Nc1ccc(S(=O)(=O)c2ccc(NC(=O)c3ccc4c(c3)C(=O)N(c3ccc(Oc5ccc(N6C(=O)c7ccc(*)cc7C6=O)cc5)cc3)C4=O)cc2)cc1 (repeat unit)	275.00 °C
*Oc1ccc(S(=O)(=O)c2ccc(Oc3ccc(C(C)(C)c4ccc(*)cc4)cc3)c(S(=O)(=O)O)c2)cc1S(=O)(=O)O (repeat unit)	188.00 °C
*CCN(CCOC(=O)NCC1(C)CC(NC(=O)O*)CC(C)(C)C1)c1ccc(C=C(C#N)C#N)cc1 (repeat unit)	145.00 °C

SMILES	glass transition temperature
*CCCCCOc1ccc(CCc2ccc(O*)cc2C)cc1 (repeat unit)	15.40 °C
*O[Si](C)(C)O[Si](C)(C)OC(C)CCCCC(*)C (repeat unit)	-87.00 °C
*c1ccc(Sc2ccc(-c3nc4ccc(-c5ccc6nc(*)c(-c7ccccc7)nc6c5)cc4nc3-c3ccccc3)cc2)cc1 (repeat unit)	288.00 °C
*N=P(N=P(N=S(*)(=O)NCC)(NCC)NCC)(NCC)NCC (repeat unit)	4.00 °C
*CC(O)COC(=O)c1cccc(C(=O)OCC(O)COc2ccc(C(C)(C)c3ccc(O*)cc3)cc2)c1 (repeat unit)	97.00 °C
*c1ccc(Oc2ccc(Oc3ccc(N4C(=O)c5ccc(Oc6cccc7c6C(=O)N(*)C7=O)cc5C4=O)cc3)cc2)cc1 (repeat unit)	249.00 °C
*Oc1ccc(S(=O)(=O)c2ccc(Oc3ccc(C(=O)c4ccc(*)cc4)cc3)cc2)cc1 (repeat unit)	205.00 °C
*Oc1ccc(P(=O)(c2ccccc2)c2ccc(Oc3ccc(-c4ccc(*)cc4)cc3)cc2)cc1 (repeat unit)	234.00 °C
*Oc1ccc(C(c2ccc(Oc3ccc(C(=O)c4c(C(=O)c5ccc(*)cc5)c(-c5ccccc5)c(-c5ccc6ccccc6c5)c(-c5ccc6ccccc6c5)c4-c4ccccc4)cc3)cc2)(C(F)(F)F)C(F)(F)F)cc1 (repeat unit)	275.00 °C
*Oc1ccc(Oc2ccc(C(=O)c3ccc(*)c(S(=O)(=O)O)c3)cc2S(=O)(=O)O)cc1 (repeat unit)	220.00 °C
*Oc1ccc(OC(=O)c2ccc(C(*)=O)cc2)cc1C1CCCCC1 (repeat unit)	206.00 °C
*OC1C(CO)OC(*)C(N)C1O (repeat unit)	194.00 °C
*CCCCCCOC(=O)OCCCCOC(=O)OCCCCCCOc1ccc(Oc2ccc(O*)cc2)cc1 (repeat unit)	-8.00 °C
*C(=O)c1ccc2c(c1)C(=O)N(c1cc(OCCCCCCCCCCCC)cc(N3C(=O)c4ccc(*)cc4C3=O)c1)C2=O (repeat unit)	182.00 °C
*c1ccc(N2C(=O)c3c(c(-c4ccccc4)c(-c4ccc(-c5c(-c6ccccc6)c6c(c(-c7ccccc7)c5-c5ccccc5)C(=O)N(*)C6=O)cc4)c(-c4ccccc4)c3-c3ccccc3)C2=O)cc1 (repeat unit)	466.00 °C
*/C=C(/*)c1ccccc1[Si](C)(C)C (repeat unit)	190.00 °C
*c1ccc(Nc2c(F)c(F)c(-c3c(F)c(F)c(Nc4ccc(S(*)(=O)=O)cc4)c(F)c3F)c(F)c2F)cc1 (repeat unit)	332.00 °C
*CC(CCCCCCCCCCCCCCCC)C(CCCCCCCCCCCCCCCC)COC(=O)c1ccc(C(=O)O*)cc1 (repeat unit)	-26.00 °C
*Oc1ccc(/N=C/c2ccc(Oc3ccc(C(c4ccc(Oc5ccc(/C=N/c6ccc(Oc7ccc(-c8ccc(*)cc8)cc7)cc6)cc5)cc4)(C(F)(F)F)C(F)(F)F)cc3)cc2)cc1 (repeat unit)	128.00 °C
*Oc1ccc(NC(=O)c2ccc(Oc3ccc(C(C)(C)c4ccc(C(C)(C)c5ccc(Oc6ccc(C(=O)Nc7ccc(Oc8ccc(-c9ccc(*)cc9)cc8)cc7)cc6)cc5)cc4)cc3)cc2)cc1 (repeat unit)	177.00 °C

Reference: the PolyMetriX glass transition set
